Measurements reported in patent US8242280B2, “Fused ring heterocycle kinase modulators” (SGX Pharmaceuticals, Inc., priority 2007, dated 2012).

Assays:
[1] = molecular target: T1, unphosphorylated T315I Abl kinase domain (Mus musculus, UniProt P00520, T315I); test: c-Abl T315I 0P bioassay (pyruvate kinase/lactate dehydrogenase coupled enzyme assay); format: biochemical; conditions: zero phosphorylation state (0P), 10 μM ATP, read-out: AbI T315I 0P IC50
T1 construct: purified and unphosphorylated T315I Abl kinase domain; made in house; host or cells: E. coli BL21(DE3) (Codon+RIL or pSA0145 strain)
T1 sequence (P00520 242-493 T315I limits assumed): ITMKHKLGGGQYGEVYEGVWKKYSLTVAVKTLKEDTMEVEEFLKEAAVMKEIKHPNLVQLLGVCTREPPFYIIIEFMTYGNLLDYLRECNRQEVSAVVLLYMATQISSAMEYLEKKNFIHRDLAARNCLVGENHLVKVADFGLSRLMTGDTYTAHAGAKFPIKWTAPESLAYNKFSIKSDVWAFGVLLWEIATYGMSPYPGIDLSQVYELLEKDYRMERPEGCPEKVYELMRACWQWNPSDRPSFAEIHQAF
From the text: Although the first of these examples uses the kinase domain of a mutant form of Abl T315I (“Abl T315I KD”), the kinase assays may use various forms of mutant and wild type enzymes, including, for example, the entire protein, the kinase domain, or a portion thereof (e.g. Abl Y393F). The kinases used in the assays may also be of varying phosphorylation states. In the c-Abl example, a mutant kinase at a zero phosphorylation state was used. c-Abl Pyruvate Kinase/Lactate Dehydrogenase Coupled Enzyme Assay
In the c-Abl Pyruvate Kinase (PK)/Lactate Dehydrogenase (LDH) Coupled Assay the protein kinase dependant phosphorylation of a substrate peptide was coupled to the oxidation of NADH. The oxidation of NADH to NAD+ was detected by monitoring a decrease in absorbance at 340 nm.
Materials: Abl substrate peptide=EAIYAAPFAKKK (SEQ ID NO: 1)—OH (Biopeptide, San Diego, Calif.); pNADH (Sigma Cat#N-8129, FW=709.4); 2M MgC12; 1M HEPES buffer, pH 7.5; Phosphoenolpyruvate (PEP) (Sigma Cat#P-7002, FW=234); Lactate dehydrogenase (LDH) (Worthington Biochemical Cat#2756); Pyruvate Kinase (PK) (Sigma Cat#P-9136); ATP (Sigma Cat#A-3377, FW=551); Greiner 384-well UV star plate; and purified and unphosphorylated T315I Abl kinase domain.
Stock Solutions: 10 mM NADH (7.09 mg/ml in miliQH2O) made fresh daily; 10 mM Abl substrate peptide (13.4 mg/ml in miliQH2O) stored at −20° C.; 100 mM HEPES buffer, pH 7.5 (5 ml 1M stock+45 ml miliQH2O); 100 mM MgCl2 (5 ml 2M MgCl2+95 ml dH2O); 100 MM PEP (23.4 mg/ml in dH2O) stored at −20° C.; 10 mM ATP (5.51 mg/ml in dH2O) stored at −20° C. (diluted 50 μl into total of 10 ml miliQH2O daily=50 μM ATP working stock); 1000 U/ml PK (U/mg varies with lot) flash-frozen under liquid N2 and stored at −80° C.; and 1000 U/ml LDH (U/mg varies with lot) flash-frozen under liquid N2 and stored at −80° C.
Standard Assay Setup for 384-well format (50 μl reaction): 300 μM NADH; 10 mM MgCl2; 2 mM PEP; 45U/ml PK; 60 U/ml LDH; 200 μM Abl substrate peptide; 2.5 μl test compound (in DMSO); 2 μg/ml Abl kinase domain; 10 μM ATP; 100 mM HEPES buffer. Positive controls contained DMSO with no test compound. Negative controls contained 5 μl of 0.5M EDTA (50 mM in the assay). The dephosphorylated form of the c-Abl T315I mutant was used in the biochemical screening assays. The kinase reaction was initiated at time t=0 by the addition of ATP.
Activity was measured by following the time-dependent loss of NADH by absorbance spectroscopy at 340 nm. The linear portion of the resulting progress curve was then analyzed by linear regression to get the activity in absorbance units/time, reported as the slope of that best fit line (moles/unit time can be calculated from using molar extinction coefficient for NADH at 340 nm, 6250M^−1 cm^−1).
Data was evaluated using the equation: Z′=1−[3*(σ++σ−)/|μ+−μ−|](Zhang, et al., 1999 J Biomol Screening 4(2) 67-73), where μ denotes the mean and σ the standard deviation. The subscript designates positive or negative controls. The Z′ score for a robust screening assay should be ≧0.50. The typical threshold=μ+−3*σ+. Any value that falls below the threshold was designated a “hit”.
Dose response was analyzed using the equation: y=min+{(max−min)/(1+10^[compound]−logIC50)}, where y is the observed initial slope, max=the slope in the absence of inhibitor, min=the slope at infinite inhibitor, and the IC50 is the [compound] that corresponds to ½ the total observed amplitude (Amplitude=max−min).
To measure modulation, activation, or inhibition of Abl KD, a test compound was added to the assay at a range of concentrations. Inhibitors may inhibit Abl KD activity at an IC50 in the micromolar range, the nanomolar range, or, for example, in the subnanomolar range.
An open-reading frame for c-Abl was amplified from a Mus musculus (mouse) cDNA library prepared from freshly harvested mouse liver using a commercially available kit (invitrogen) by PCR using the following primers: […]
The c-Abl T315I KD (kinase domain) was purified as follows. […]

Ba/F3 cells, ABL1 T315I = Ba/F3 cells, ABL1 T315I (Homo sapiens, UniProt P00519, T315I, cells depend on it); test: 96-well XTT cell survival assay, Ba/F3 ABL1 T315I; format: cell-based; conditions: 72 hours, read-out: ABL1 T315I XTT [Ba/F3] IC50
Protocol: (§1) MV4-11 and THP cells were maintained in Iscove's Modified Dulbecco's Medium supplemented with 10% fetal bovine serum (FBS) and penicillin/streptomycin, Ba/F3 cells were maintained in RPMI 1640 supplemented with 10% FBS, penicillin/streptomycin and 5 ng/ml recombinant mouse IL-3.
(§2) Compounds were tested in the following assays in duplicate.
(§3) 96-well XTT assay: Cells (e.g. BaF3 315I, M351I, or E255K cells) were grown in growth media containing various concentrations of compounds (duplicates) on a 96-well plate for 72 hours at 37° C. The starting cell number was 5000-8000 cells per well and volume was 120 μl. At the end of the 72-hour incubation, 40 μl of XTT labeling mixture (50:1 solution of sodium 3′-[1-(phenylamino-carbonyl)-3,4-tetrazolium]-bis(4-methoxy-6-nitro)benzene sulfonic acid hydrate and Electron-coupling reagent: PMS (N-methyl dibenzopyrazine methyl sulfate) were added to each well of the plate. After an additional 2-6 hours of incubation at 37° C., the absorbance reading at 405 nm with background correction at 650 nm was measured with a spectrophotometer.

Ba/F3 cells, ABL1 WT = Ba/F3 cells, ABL1 WT (Homo sapiens, UniProt P00519); test: 96-well XTT cell survival assay, Ba/F3 ABL1 WT; format: cell-based; conditions: 72 hours, read-out: ABL1 WT XTT [Ba/F3] IC50
Protocol: as §1, §2, §3

| SMILES | IC50 [1] | GI50 (Ba/F3 cells, ABL1 T315I) | GI50 (Ba/F3 cells, ABL1 WT) |
| --- | --- | --- | --- |
| COc1ccccc1-c1c[nH]c2ncc(-c3cccc(C(CC(=O)N4CCC[C@@H]4CO)N4CCS(=O)(=O)CC4)c3)cc12 (stereo partly shown) | 50 to 500 nM | > 1000 nM | > 1000 nM |
| COc1ccccc1-c1n[nH]c2ncc(-c3cccc(C(OC)C(=O)N4CC(O)C4)c3)cc12 (stereo not shown) | < 50 nM | – | – |
| COc1ccccc1-c1n[nH]c2ncc(-c3cccc(C(O)CN)c3)cc12 (stereo not shown) | < 50 nM | – | – |
| CNCCN(C)C(=O)C(N)c1cccc(-c2cnc3[nH]cc(-c4ccccc4OC)c3c2)c1 (stereo not shown) | < 50 nM | > 1000 nM | > 1000 nM |
| COc1ccccc1-c1n[nH]c2ncc(-c3cccc(C(O)C(=O)N(C)CC#N)c3)cc12 (stereo not shown) | < 50 nM | > 1000 nM | < 1000 nM |
| COc1ccccc1-c1n[nH]c2ncc(-c3cccc(C(O)C(=O)N(C)CCC#N)c3)cc12 (stereo not shown) | < 50 nM | < 1000 nM | < 1000 nM |
| COc1ccccc1-c1n[nH]c2ncc(-c3cccc(C(O)C(=O)N(C)C4CCOCC4)c3)cc12 (stereo not shown) | < 50 nM | < 1000 nM | < 1000 nM |
| COc1ccccc1-c1n[nH]c2ncc(-c3cccc(C(O)C(=O)N(C)Cc4ccco4)c3)cc12 (stereo not shown) | < 50 nM | > 1000 nM | > 1000 nM |
| COc1ccccc1-c1n[nH]c2ncc(-c3cccc(C(O)C(=O)N(C)CCO)c3)cc12 (stereo not shown) | < 50 nM | < 1000 nM | < 1000 nM |
| COc1ccccc1-c1c[nH]c2ncc(-c3cncc(C(O)C(=O)N(C)C)c3)cc12 (stereo not shown) | < 50 nM | < 1000 nM | < 1000 nM |
| COc1ccccc1-c1n[nH]c2ncc(-c3cccc(C(O)C(=O)N(C4CC4)C4CCN(C)CC4)c3)cc12 (stereo not shown) | < 50 nM | < 1000 nM | < 1000 nM |
| COc1ccccc1-c1n[nH]c2ncc(-c3cccc(C(O)C(=O)N(C)CCNC(C)(C)C)c3)cc12 (stereo not shown) | < 50 nM | < 1000 nM | < 1000 nM |
| CNC(C(=O)N1CCC(O)C1)c1cccc(-c2cnc3[nH]nc(-c4ccccc4OC)c3c2)c1 (stereo not shown) | < 50 nM | – | – |
| COc1ccccc1-c1n[nH]c2ncc(-c3cccc(C(C(=O)N(C)C)N(C)C)c3)cc12 (stereo not shown) | 50 to 500 nM | – | – |
| COc1ccccc1-c1n[nH]c2ncc(-c3cccc(C(C(=O)N4CCC(O)C4)N(C)C)c3)cc12 (stereo not shown) | 50 to 500 nM | – | – |
| COc1ccccc1-c1n[nH]c2ncc(-c3cccc(C(C(=O)N(C)C(C)C)N(C)C)c3)cc12 (stereo not shown) | 50 to 500 nM | – | – |
| COc1ccccc1-c1c[nH]c2ncc(-c3cncc(C(O)C(=O)N(C)C)n3)cc12 (stereo not shown) | > 500 nM | – | – |
| COc1ccccc1-c1n[nH]c2ncc(-c3cccc([C@@H]4OCO[C@H]4C(C)C)c3)cc12 | < 50 nM | – | – |
| CC(=O)Nc1ccc(-c2c[nH]c3ncc(-c4cncc(C(O)C(=O)N(C)C)c4)cc23)cc1 (stereo not shown) | < 50 nM | > 1000 nM | – |
| CN(C)C(=O)C(O)c1cncc(-c2cnc3[nH]cc(-c4cccc(C#N)c4)c3c2)c1 (stereo not shown) | 50 to 500 nM | – | – |
| CN(C)C(=O)C(O)c1cncc(-c2cnc3[nH]cc(-c4ccc(C(F)(F)F)cc4)c3c2)c1 (stereo not shown) | 50 to 500 nM | – | – |
| Cc1noc(C)c1-c1c[nH]c2ncc(-c3cncc(C(O)C(=O)N(C)C)c3)cc12 (stereo not shown) | 50 to 500 nM | – | – |
| CN(C)C(=O)C(O)c1cncc(-c2cnc3[nH]cc(-c4cnn(C)c4)c3c2)c1 (stereo not shown) | 50 to 500 nM | – | – |
| CN(C)C(=O)C(O)c1cncc(-c2cnc3[nH]cc(-c4ccn(-c5ccccc5)n4)c3c2)c1 (stereo not shown) | 50 to 500 nM | – | – |
| CN(C)C(=O)C(O)c1cncc(-c2cnc3[nH]cc(-c4ncco4)c3c2)c1 (stereo not shown) | 50 to 500 nM | – | – |
| CN(C)C(=O)C(O)c1cncc(-c2cnc3[nH]cc(-c4cc(C(F)(F)F)nn4C)c3c2)c1 (stereo not shown) | > 500 nM | – | – |
| CN(C)C(=O)C(=O)c1cncc(-c2cnc3[nH]cc(-c4ccnn4C)c3c2)c1 | > 500 nM | – | – |
| COc1ccccc1-c1c[nH]c2ncc(-c3cccc(C(CC(=O)N(C)C)N4CCS(=O)(=O)CC4)c3)cc12 (stereo not shown) | > 500 nM | – | – |
| COc1ccccc1-c1c[nH]c2ncc(-c3cccc(C(CC(=O)N(C)CCN(C)C)N4CCS(=O)(=O)CC4)c3)cc12 (stereo not shown) | > 500 nM | – | – |
| CN(C)C(=O)C(O)c1cncc(-c2cnc3[nH]cc(-c4cccc(Cl)c4)c3c2)c1 (stereo not shown) [drawing 459] | < 50 nM | – | < 1000 nM |
